Laboratory results published in ChEMBL document CHEMBL1268832, “Discovery of a potent tubulin polymerization inhibitor: synthesis and evaluation of water-soluble prodrugs of benzophenone analog” (Bioorg Med Chem Lett, 2010).
In brackets after ≈: the same amount, converted by molar mass. Each block holds one compound with its values, some of them ahead of it. Activity calls are given as the source filed them. The calls are words filed in the database; no cut-off is given here.

What was measured:
HL-60 = test: Antiproliferative activity against human HL60 cells after 72 hrs by MTT assay; type: functional, cell-based; conditions: HL-60, 72 h
[1] = Metabolic stability in dog liver microsomes assessed as compound remaining at 5 uM after 1 hr; type: ADME, Canis lupus familiaris, Microsome; conditions: read-out: Stability
MDA-MB-231 = test: Antiproliferative activity against P-gp expressing multidrug-resistant human MDA-MB-231 cells after 72 hrs by MTT assay; type: functional, cell-based; conditions: MDA-MB-231, 72 h
[2] = Half life in Sprague-Dawley rat at 10 mg/kg, iv; type: ADME, organism-based; set-up: dose 10 mg/kg, route intravenous; conditions: in vivo
[3] = Aqueous solubility of the compound in deionized water; type: physicochemical
[4] = Metabolic stability in human liver microsomes assessed as compound remaining at 5 uM after 1 hr; type: ADME, Microsome; conditions: read-out: Stability
CX-1 [5] = test: Antitumor activity against human CX-1 cells xenografted in mouse assessed as tumor growth inhibition at 10 mg/kg, ip for every 4 days 4 doses; type: functional; set-up: scale not given: the % may be the effect or the level left; conditions: route intraperitoneal
CX-1 [6] = test: Antitumor activity against human CX-1 cells xenografted in mouse assessed as mouse survival at 5 mg/kg, ip for every 4 days 4 doses; type: functional, organism-based; set-up: dose 5 mg/kg
Mus musculus [7] = test: Toxicity in human CX-1 cells xenografted in mouse assessed as chage in body weight at 5 mg/kg, ip for every 4 days 4 doses (Rbv = 24.5%); type: organism-based; set-up: dose 5 mg/kg, route intraperitoneal; conditions: in vivo, 96 h
Mus musculus [8] = test: Toxicity in human CX-1 cells xenografted in mouse assessed as chage in body weight at 10 mg/kg, ip for every 4 days 4 doses (Rbv = 24.5%); type: organism-based; set-up: dose 10 mg/kg, route intraperitoneal; conditions: in vivo, 96 h
CX-1 [9] = test: Antitumor activity against human CX-1 cells xenografted in mouse assessed as tumor growth inhibition at 5 mg/kg, ip for every 4 days 4 doses; type: functional; set-up: scale not given: the % may be the effect or the level left; conditions: route intraperitoneal
CX-1 [10] = test: Antitumor activity against human CX-1 cells xenografted in mouse assessed as mouse survival at 10 mg/kg, ip for every 4 days 4 doses; type: functional, organism-based; set-up: dose 10 mg/kg
HCT-116 [11] = test: Antitumor activity against human HCT116 cells xenografted in mouse assessed as mouse survival at 10 mg/kg, ip for every 4 days 4 doses; type: functional, organism-based; set-up: dose 10 mg/kg
HCT-116 [12] = test: Antitumor activity against human HCT116 cells xenografted in mouse assessed as tumor growth inhibition at 10 mg/kg, ip for every 4 days 4 doses; type: functional; set-up: scale not given: the % may be the effect or the level left; conditions: route intraperitoneal
Mus musculus [13] = test: Toxicity in human HCT116 cells xenografted in mouse assessed as chage in body weight at 10 mg/kg, ip for every 4 days 4 doses (Rbv = -5.7%); type: organism-based, HCT-116; set-up: dose 10 mg/kg, route intraperitoneal; conditions: in vivo, 96 h
HCT-116 [14] = test: Antitumor activity against human HCT116 cells xenografted in mouse assessed as tumor growth inhibition at 5 mg/kg, ip for every 4 days 4 doses; type: functional; set-up: scale not given: the % may be the effect or the level left; conditions: route intraperitoneal
HCT-116 [15] = test: Antitumor activity against human HCT116 cells xenografted in mouse assessed as mouse survival at 5 mg/kg, ip for every 4 days 4 doses; type: functional, organism-based; set-up: dose 5 mg/kg
Mus musculus [16] = test: Toxicity in human HCT116 cells xenografted in mouse assessed as chage in body weight at 5 mg/kg, ip for every 4 days 4 doses (Rbv = -5.7%); type: organism-based, HCT-116; set-up: dose 5 mg/kg, route intraperitoneal; conditions: in vivo, 96 h

IC50 (HL-60): 740 nM
SMILES: COc1cc(C(=O)c2ccc(-c3csc(NC(=O)[C@H](N)Cc4ccc(F)cc4)n3)cc2-n2cncn2)cc(OC)c1OC

SMILES: COc1cc(C(=O)c2ccc(-c3csc(N)n3)cc2-n2cncn2)cc(OC)c1OC
remaining at 1 h, 5 µM [1]: 60%
IC50 (MDA-MB-231): 9.8 nM
half-life [2]: 1.65 min
solubility [3]: < 100 µg/mL
remaining at 1 h, 5 µM [4]: 60%

IC50 (HL-60): 76 nM
SMILES: COc1cc(C(=O)c2ccc(-c3csc(NC(=O)[C@@H](N)CC(C)C)n3)cc2-n2cncn2)cc(OC)c1OC

IC50 (HL-60): 280 nM
SMILES: COc1cc(C(=O)c2ccc(-c3csc(NC(=O)[C@H](N)c4ccccc4)n3)cc2-n2cncn2)cc(OC)c1OC

IC50 (HL-60): 27 nM
SMILES: COc1cc(C(=O)c2ccc(-c3csc(NC(=O)CN)n3)cc2-n2cncn2)cc(OC)c1OC
Activity (CX-1 [5]): 44%
Activity (CX-1 [6]): Active
Activity (Mus musculus [7]): 22.2%
Activity (Mus musculus [8]): 21%
Activity (CX-1 [9]): 40%

IC50 (HL-60): 920 nM
SMILES: COc1cc(C(=O)c2ccc(-c3csc(NC(=O)[C@H](N)Cc4ccc(Cl)cc4)n3)cc2-n2cncn2)cc(OC)c1OC

IC50 (HL-60): 89 nM
SMILES: COc1cc(C(=O)c2ccc(-c3csc(NC(=O)[C@@H](N)Cc4ccccc4)n3)cc2-n2cncn2)cc(OC)c1OC
Activity (CX-1 [10]): Active
Activity (CX-1 [5]): 43%
Activity (CX-1 [6]): Active
Activity (Mus musculus [7]): 28.9%
Activity (Mus musculus [8]): 24.5%
Activity (CX-1 [9]): 21%

remaining at 1 h, 5 µM [1]: 10%
half-life [2]: 0.41 min
solubility [3]: 930 µg/mL (≈ 1730 µM)
IC50 (HL-60): 110 nM
remaining at 1 h, 5 µM [4]: 15%
SMILES: COc1cc(C(=O)c2ccc(-c3csc(NC(=O)[C@@H](N)C(C)C)n3)cc2-n2cncn2)cc(OC)c1OC
Activity (CX-1 [10]): Active
Activity (CX-1 [5]): 64%
Activity (CX-1 [6]): Active
Activity (HCT-116 [11]): Active
Activity (Mus musculus [7]): 25.7%
Activity (Mus musculus [8]): 14.7%
Activity (CX-1 [9]): 28%
Activity (HCT-116 [12]): 88%
Activity (Mus musculus [13]): 5.1%

IC50 (HL-60): 13 nM
SMILES: COc1cc(C(=O)c2ccc(-c3csc(NC(=O)[C@H](C)N)n3)cc2-n2cncn2)cc(OC)c1OC
Activity (HCT-116 [14]): 62%
Activity (HCT-116 [15]): Active
Activity (Mus musculus [16]): -1.7%

IC50 (HL-60): 81 nM
SMILES: COc1cc(C(=O)c2ccc(-c3csc(NC(=O)[C@@H](N)CO)n3)cc2-n2cncn2)cc(OC)c1OC

IC50 (HL-60): 98 nM
SMILES: COc1cc(C(=O)c2ccc(-c3csc(NC(=O)[C@@H]4CCCN4)n3)cc2-n2cncn2)cc(OC)c1OC

SMILES: COc1ccc(/C=C\c2cc(OC)c(OC)c(OC)c2)cc1N
IC50 (MDA-MB-231): 45 nM

IC50 (HL-60): > 2000 nM
SMILES: COc1cc(C(=O)c2ccc(-c3csc(NC(=O)[C@H](N)Cc4ccc(C(F)(F)F)cc4)n3)cc2-n2cncn2)cc(OC)c1OC

IC50 (HL-60): 5 nM
SMILES: COc1cc(C(=O)c2ccc(-c3csc(NC(=O)C(C)(C)N)n3)cc2-n2cncn2)cc(OC)c1OC
Activity (CX-1 [10]): Active
Activity (CX-1 [5]): 20%
Activity (CX-1 [6]): Active
Activity (Mus musculus [7]): 24.8%
Activity (Mus musculus [8]): 26.7%
Activity (CX-1 [9]): 23%

IC50 (HL-60): 86 nM
SMILES: COc1cc(C(=O)c2ccc(-c3csc(NC(=O)[C@@H](N)CC4CCCCC4)n3)cc2-n2cncn2)cc(OC)c1OC
